Tests used:
[1] = system: human skeletal muscle myotubes; test: Oxygen consumption rate / ATP-synthase-dependent respiration (Seahorse XF96) in epibatidine-stimulated myotubes; assay type: cell-based; details: myotubes treated 3 h, stimulated with epibatidine 10 μM, oligomycin 2.5 μg/ml; vs control
Protocol: (§1) To test the effect of adenosyl B12 and methyl B12 in human muscle myotubes, oxygen consumption rate and ATP production were measured in human myotubes, differentiated from primary adult muscle cells (HSMM). HSMM were purchased from Lonza (https://bioscience.lonza.com). HSMM were isolated from the upper arm or leg muscle tissue of normal donors and used after the second passage. HSMM were seeded in 96-well plates at a density of 12000 cells per well in SKM-M medium (ZenBio). Myotubes were differentiated from HSMM by growing the cells in DMEM/F-12 (Gibco) containing 2% horse serum, for 4 days. From the second growing day, the medium was not containing B12.
Oxygen consumption was measured using a XF96 instrument (Seahorse Biosciences, North Billerica, Mass., USA). After differentiation, respiration rates were determined every 7 min at 37° C. Myotubes were stimulated with 10 μM epibatidine. […] ATP synthase-dependent respiration was calculated as the difference in respiration rate before and after the addition of oligomycin.
(§2) For treatment, compounds were directly added to the cell culture or myotubes cultures 3 hours (acute treatment) or 3 days (chronic treatment) before measurements. Custom module analysis based on Excel (Microsoft) and GraphPad Prism 7.02 (GraphPad) software was used for quantification.

[2] = system: oxidative phosphorylation genes in skeletal muscle; test: Gene-set enrichment and network analysis of skeletal muscle (tibialis anterior) RNA of treated old rats; assay type: in vivo, Male Wistar rats; details: 1 mg/kg s.c. 3 times a week, 5 months; for network analysis of regulated genes (protein-protein interactions): interaction score >0.9
Protocol: (§3) Male Wistar rats aged 3 months or 19 months were treated with adenosylcobalamin (Adenosyl-B12) or methylcobalamin (Methyl-B12) at a dose of 1 mg/kg 3 times a week during 5 months by subcutaneous injection. Control animals were injected with equivalent volumes of saline. After 5 months treatment, adult rats were defined as 8 months old rats and old (aged) animals were defined as 24 old rodents.
Total RNA was extracted from tibialis anterior using the Agencourt RNAdvance Tissue Kit. For Gene-set enrichment analysis and Network analysis, RNA quantity was measured with Ribogreen and RNA quality was checked using the Standard Sensitivity RNA Analysis Kit on a Fragment Analyzer. All cRNA targets were synthesized using the IVT plus kit and fragmented according to the Affymetrix protocol, based on the Eberwine T7 procedure. Briefly, 100 ng of total RNA were used to produce double-stranded cDNA, followed by in vitro transcription, and cRNA labeling with biotin. Gene-set enrichment analysis (GSEA) of skeletal muscle describe the significant pathway differentially expressed (FIG. 5A). For Network analysis (FIG. 5B), nodes with an interaction score >0.9 are represented in different gray levels and aggregated by biological function.

[3] = system: human skeletal muscle myotubes; test: Luciferase-based ATP production evoked by epibatidine in myotubes; assay type: cell-based; details: vs control
Protocol: as §1
ATP measurements were carried out using myotubes infected with the adenovirus (from Sirion biotech) expressing luciferase. Luminescence was measured at the Cytation 3 cell imaging reader (Biotek). Relative changes of ATP were measured 48 h after infection in a luminometer, in standard medium containing 145 mM NaCl, 5 mM KCl, 1 mM MgCl2, 1 mM CaCl2), 10 mM glucose and 10 mM Hepes, pH 7.4. Luciferine (5 μM) was added to promote ATP-dependent reaction and basal luminescence was normalized as 100%. ATP production was stimulated in myotubes by addition of epibatidine.
as §2

aged rats = test: Rotarod muscle performance / locomotor coordination; assay type: in vivo, Male Wistar rats; details: 1 mg/kg s.c. 3 times a week, 5 months, vs control
Protocol: as §3
To determine muscle performance (FIG. 6), locomotor coordination was measured using rotarod device. […] The time of activity on rotarod is measured in seconds. Each animal was recorded 3 times, with a resting period of at least 10 min between each trial.

Which results are given for C/C1=C2/[N-][C@H]([C@H](CC(N)=O)[C@@]2(C)CCC(=O)NC[C@@H](C)OP(=O)([O-])O[C@H]2[C@@H](O)[C@@H](n3cnc4cc(C)c(C)cc43)O[C@@H]2CO)[C@]2(C)N=C(/C(C)=C3N=C(/C=C4N=C1[C@@H](CCC(N)=O)C\4(C)C)[C@@H](CCC(N)=O)[C@]\3(C)CC(N)=O)[C@@H](CCC(N)=O)[C@]2(C)CC(N)=O.[CH2-][C@H]1O[C@@H](n2cnc3c(N)ncnc32)[C@H](O)[C@@H]1O.[Co] [Adenosyl B12, adenosylcobalamin]?
ATP-synthase-dependent component of the respiration [1]: increases the ATP-synthase-dependent component of the respiration; gene expression signature of oxidative phosphorylation genes (enrichment plot analysis, GSEA) ([2]; Adenosyl-B12 vs Methyl-B12): specifically shows gene expression signature of oxidative phosphorylation genes in skeletal muscle; network analysis of regulated genes (protein-protein interactions) [2]: distinguished several clusters linked to mitochondrial respiratory chain complexes, oxidative phosphorylation and mitochondrial function; epibatine-stimulated ATP production ([3]; acute treatment, 3 h): potentiates epibatine-stimulated ATP production; epibatine-stimulated ATP production ([3]; chronic treatment, 3 days): potentiates epibatine-stimulated ATP production; time of activity on rod (aged rats): significantly increased

For C/C1=C2/[N-][C@H]([C@H](CC(N)=O)[C@@]2(C)CCC(=O)NC[C@H](C)OP(=O)([O-])O[C@H]2[C@@H](O)[C@@H](n3cnc4cc(C)c(C)cc43)O[C@@H]2CO)[C@]2(C)N=C(/C(C)=C3N=C(/C=C4N=C1[C@@H](CCC(N)=O)C\4(C)C)[C@@H](CCC(N)=O)[C@]\3(C)CC(N)=O)[C@@H](CCC(N)=O)[C@]2(C)CC(N)=O.[CH3-].[Co+3] [methyl B12, methylcobalamin, reference compound], which “ATP-synthase-dependent component of the respiration” value [1] is on record?
The value was “does not increase the ATP-synthase-dependent component of the respiration”.

And the “network analysis of regulated genes (protein-protein interactions)” value [2]?
The value was “No network representation of oxidative phosphorylation genes is possible”.

And the “epibatine-stimulated ATP production” value ([3]; acute treatment, 3 h)?
The value was “not methyl B12 potentiates epibatine-stimulated ATP production”.

— patent publication US20220323479A1, “COMPOSITIONS AND METHODS USING ADENOSYLCOBALAMIN” (SOCIETE DES PRODUITS NESTLE S.A., priority 2019, published 2022)
